Counter-ions that a name gives are not always drawn.
Assays:
[1] = system: NCI-H1975 cells (T790M and L858R EGFR mutations); assay: Cell growth inhibition (Cell Titer-Glo), NCI-H1975; assay type: cell-based; conditions: Homo sapiens, 72 hours drug treatment, 0.03 nM to 100 nM
Method: (§1) Experiment of Cell Growth Inhibition
(§2) The LoVo cell line is a wild-type EGFR human colon adenocarcinoma cell, and is grown in F-12K medium (GIBCO) containing 10% FBS. NCI-H2073 cell line is a wild-type EGFR human non-small cell lung cancer cell and grown in ACL-4 medium containing 10% FBS. The growth rate of NCI-H1975, LoVo and NCI-H2073 cells was detected by Cell Titer-Glo luminescence activity assay (Promega #G7572).
(§3) Briefly, trypsin was used for digesting cells in the logarithmic growth phase. 96-well plates were seeded with 50,000 Lovo or NCI-H2073 cells, 2500-3000 NCI-H1975 cells per well and provided with blank control wells containing only nutrient solution without inoculated cell, and the plates were incubated in a humidified incubator with 5% CO2 at 37° C. […] The concentration of test drug in NCI-H1975 cells was from 0.03 nM to 100 nM, and that in LoVo and NCI-H2073 cells was from 3 nM to 10 μM. The cell culture medium containing the different compounds was then added to a 96-well cell plate in which one cell control well comprising cell culture medium only containing DMSO was provided. After a drug treatment for 72 hours, the cell plates were removed from the incubator and allowed to stand at room temperature for 30 minutes. Next, Cell Titer-Glo reagent was added to the wells and the 96-well cell plate was shaken at room temperature for 10 minutes to induce cell lysis. The 96-well cell plate was placed on the bench for 2 minutes to stabilize the luminescence signal. Finally, the 96-well cell plate was placed in an EnVision Multi-labeled Microplate Reader (PerkinElmer), and the signal was read with an integral time of 0.5 seconds.
(§4) Formula: Percentage of cell growth inhibition %=(maximum signal−compound signal)/(maximum signal−minimum signal)*100%
(§5) The maximal signal was obtained from the cell control well which were treated with the DMSO solution having no any compound;
(§6) The compound signal was obtained from the drug-treated cell wells to which the compound was added;
(§7) The minimum signal was obtained from a blank control well to which no cells and only nutrient solution was added.

[2] = system: LoVo cells (wild-type EGFR human colon adenocarcinoma); assay: Cell growth inhibition (Cell Titer-Glo), LoVo; assay type: cell-based; conditions: 72 hours drug treatment, 3 nM to 10 μM
Method: as §1, §2, §3, §4, §5, §6, §7

[3] = system: NCI-H2073 cells (wild-type EGFR human non-small cell lung cancer); assay: Cell growth inhibition (Cell Titer-Glo), NCI-H2073; assay type: cell-based; conditions: 72 hours drug treatment, 3 nM to 10 μM
Method: as §1
as §2, with “The compounds that were preferentially targeted for EGFR targeting certain mutations and relatively weak in wild-type EGFR were identified by determining the growth of cells. The NCI-H1975 cell line is a human non-small cell lung cancer cell containing T790M and L858R EGFR mutations, and the cell is grown in RPMI-1640 medium (GIBCO) containing 10% fetal bovine serum (FBS). The LoVo” for “The LoVo”
Briefly, trypsin was used for digesting cells in the logarithmic growth phase. 96-well plates were seeded with 50,000 Lovo or NCI-H2073 cells, 2500-3000 NCI-H1975 cells per well and provided with blank control wells containing only nutrient solution without inoculated cell, and the plates were incubated in a humidified incubator with 5% CO2 at 37° C. After 24 hours, the DMSO solution of the different compounds was diluted with a cell culture medium at 3.16 times per time to eight different concentrations from high to low levels. The concentration of test drug in NCI-H1975 cells was from 0.03 nM to 100 nM, and that in LoVo and NCI-H2073 cells was from 3 nM to 10 μM. The cell culture medium containing the different compounds was then added to a 96-well cell plate in which one cell control well comprising cell culture medium only containing DMSO was provided. After a drug treatment for 72 hours, the cell plates were removed from the incubator and allowed to stand at room temperature for 30 minutes. Next, Cell Titer-Glo reagent was added to the wells and the 96-well cell plate was shaken at room temperature for 10 minutes to induce cell lysis. The 96-well cell plate was placed on the bench for 2 minutes to stabilize the luminescence signal. Finally, the 96-well cell plate was placed in an EnVision Multi-labeled Microplate Reader (PerkinElmer), and the signal was read with an integral time of 0.5 seconds.
as §4, §5, §6, §7

[4] = Concentration of parent drug and metabolite AZ5104 in rat plasma; assay type: in vivo; conditions: po, adult male rats, intragastrically, 10 mg/kg, 0.25-24 hours
Method: Comparison of the concentration of the metabolite AZ5104 in rats' body plasma of the pyrimidine compounds according to the present invention and AZD9291
Briefly, AZD9291 or the compound 49.(HCl)n of Example 49 or the compound 104.(MsOH) of Example 104 were administered intragastrically to 200-220 g of adult male rats at amount of 10 mg/kg. Each administration group had two to three rats. After administration, 150 μl of blood was extracted from the vein on the rat tail at different times (0.25, 0.5, 1, 2, 4, 6, 8, 12 and 24 hours), put in a tube with K2EDTA and placed immediately on ice. Then, the blood sample was centrifuged in centrifuge with a 4-degree at a speed of 2000 g for 15 minutes. The plasma was separated and placed in a small tube and stored in a refrigerator at −80° C. The concentration of parent drug and metabolite in plasma sample was analyzed by LC/MS.

| Structure (SMILES) | IC50 [1] [µM] | IC50 [2] [µM] | IC50 [3] [µM] | AUC [4] [µM·h] |
| --- | --- | --- | --- | --- |
| [2H]C([2H])([2H])N(CCN(C)C)c1cc(OC)c(Nc2nccc(-n3c(=O)n(C)c4ccccc43)n2)cc1NC(=O)C=C [59. (HCl)n] | 0.0013 | 4.18 | 0.12 |  |
| [2H]C([2H])([2H])Oc1cc(N(C)CCN(C)C)c(NC(=O)C=C)cc1Nc1nccc(-n2c(=O)n(C)c3ccccc32)n1 [60. (HCl)n] | 0.0014 | 4.07 | 0.11 |  |
| C=CC(=O)Nc1cc(Nc2nccc(-c3cn(C)c4ccccc34)n2)c(OC)cc1N(C)CCN(C)C [AZD9291, reference compound] |  |  |  | 0.64 |
| C=CC(=O)Nc1cc(Nc2nccc(-c3cn(C)c4ccccc34)n2)c(OC)cc1N1CC(N2CCC2)C1 [Example 22] | 0.0205 | > 10 | > 10 |  |

Further compounds by falling IC50 [1], results first:

| IC50 [1] [µM] | IC50 [2] [µM] | IC50 [3] [µM] | AUC [4] [µM·h] | Structure (SMILES) |
| --- | --- | --- | --- | --- |
| 0.036 | 4.18 | > 10 |  | C=CC(=O)Nc1cc(Nc2nccc(-n3ccc(=O)c4ccccc43)n2)c(OC)cc1N(C)CCN(C)C [56. (HCl)n] |
| 0.0165 |  | 0.977 | 1.49 | C=CC(=O)Nc1cc(Nc2nccc(-c3cn(CC(F)(F)F)c4ccccc34)n2)c(OC)cc1N(C)CCN(C)C [104. (MsOH)2] |
| 0.014 | 2.86 | 0.69 |  | C=CC(=O)Nc1cc(Nc2nccc(-c3cn(C)c4ccccc34)n2)c(OC)cc1N(C)CCN1CCC(O)C1 (centres unmarked) [53. (HCl)n] |
| 0.0007 | 2.26 | 0.135 | 0.91 | C=CC(=O)Nc1cc(Nc2nccc(-c3cn(S(C)(=O)=O)c4ccccc34)n2)c(OC)cc1N(C)CCN(C)C [49. (HCl)n] |

Reference: patent US11498921B1, “Pyrimidine or pyridine compounds, preparation method therefor and pharmaceutical uses thereof” (INVENTISBIO CO., LTD., priority 2014, dated 2022)
